Entries after “also recorded” stand apart in the source; their conditions may differ.
Experiments:
[1] = test system: Arc protein in DIV14 hippocampal neurons; experiment: Arc immunocytochemistry in cultured hippocampal neurons; format: cell-based, mouse
Procedure: Immunocytochemistry of cultured neurons was performed as described (Shepherd et al., Neuron, 52, 475-484 (2006)). Briefly, DIV14 primary hippocampal neurons were fixed in fixation solution (4% paraformaldehyde, 4% sucrose containing 1× PBS) for 20 min at 4° C. and were permeabilized with 0.2% Triton X-100 in PBS for 10 min 4° C. Cells were then blocked for 1 hr at room temperature in 10% normal goat serum (NGS). Primary antibodies were diluted (1:250 of phospho-eEF2 antibody, 1:500 of PSD95, 1:300 for Arc) in 10% NGS and incubated with neurons for overnight at 4° C. Alexa 488, or Alexa 555-conjugated secondary antibodies (1:500; Molecular Probes) were diluted in 10% NGS and incubated at room temperature for 1 hr. Coverslips were mounted with PermaFluor containing DAPI (Invitrogen). All images were taken with same exposure and setting using Zeiss 510 Meta confocal microscope. Quantification of Arc levels was carried out using Image J software. For the measurement of dendritic Arc levels, average pixel intensity was measured in the primary dendrites 20 μm away from the soma.

[2] = test system: Arc protein in DIV14 forebrain neurons; experiment: Western blot of Arc protein in cultured forebrain neurons; format: cell-based, mouse
Procedure: For biochemistry experiments, 0.4×10^6 neurons were added to each well of a 6-well plate (Coming) coated with poly-L-lysine. Growth medium consisted of NeuroBasal (Invitrogen) supplemented with 1% fetal bovine serum (Hyclone), 2% B27, 1% Glutamax (Invitrogen), 100 U/mL penicillin, and 100 U/mL streptomycin (Invitrogen). Neurons were fed twice per week with glia conditioned growth medium.
Transfected HEK293T cells or cultured neurons were treated with various drugs and then harvested in IP buffer supplemented with 1% Triton X-100 buffer and Complete™ EDTA-Free protease inhibitors. Soluble fractions were diluted with 4× SDS sample buffer.
The membrane was blocked with TBST (50 mM Tris, pH 7.5, with 150 mM NaCl, and 0.1% Tween-20) containing 5% non-fat milk for one hour at room temperature, followed by incubation with primary antibody in TBST buffer overnight at 4° C. After three washes with TBST buffer, membranes were incubated with HRP-conjugated anti-rabbit, or anti-mouse antibody in TBST for another hour. After three washes with TBST buffer, the membrane was treated with SuperSignal ECL substrate (Pierce) according to the manufacturer's protocol.
To reduce the background signal in the co-IP assay, HRP-conjugated HA or HPR conjugated myc antibody (Santa Cruz) was used when overexpressed proteins were tagged with HA or myc. […] Image J software (NIH) was used for quantification.

[3] = test system: global protein synthesis in cultured neurons; experiment: Metabolic labeling, incorporation of 35S methionine and cysteine into TCA precipitant; format: cell-based
Procedure: To measure the incorporation of ^35S methionine and cysteine into new peptide, 30 μl protein labeling mix (Perkin Elmer) was added into 1.5 ml of regular culture medium (final 220 μCi/ml) for the time indicated in the figures. After washout once with ice-cold PBS, cells were lysed with 700 μl of RIPA buffer. After quantification of total amount of protein, equal amount of lysate (˜200 μl) was precipitated with 10% TCA.

[4] = test system: surface AMPA receptor (GluR2/3, GluR1) in cultured neurons; experiment: Surface biotinylation assay of AMPA receptor subunits; format: cell-based, mouse; conditions: DHPG 5 min
Procedure: For surface biotinylation, drug-treated cortical neurons were cooled on ice, washed twice with ice-cold PBS++ (1× PBS, 1 mM CaCl2, 0.5 mM MgCl2) and then incubated with PBS++ containing 1 mg/ml Sulfo-NHS-SSBiotin (Pierce) for 30 min at 4° C. Unreacted biotin was quenched by washing cells three times with PBS++ containing 100 mM Glycine (pH 7.4) (briefly once and for 5 min twice). Cultures were harvested in RIPA buffer and sonicated. Homogenates were centrifuged at […] for 20 min at 4° C. Fifteen % of supernatant was saved as the total protein. […] Precipitates were washed with RIPA buffer three times (5 min each time). All procedures were done at 4° C.

[5] = test system: GluR1-containing AMPA receptors in primary hippocampal neurons; experiment: AMPA receptor trafficking (surface and internalized GluR1 labeling); format: cell-based, mouse
Procedure: (§1) Labeling of surface or internalized pool of AMPA receptor was performed as described with minor modifications (Shepherd, et al., Neuron, 52, 475-484 (2006)). Briefly, surface GluR1-containing AMPA receptors were then labeled by adding 2.5 μg of GluR1-N JH1816 pAb to the neuronal growth media and were subsequently incubated at 37° C. for 15 or 60 minutes after 5 min DHPG application. To visualize surface and internalized GluR1, Alexa 555 secondary was added in excess live at 10° C. Neurons were fixed, permeabilized and subsequently exposed to Alexa 488 secondary to stain internalized receptors (background in the non-permeabilized control was negligible).
as §1, with “DIV 14-21 mouse primary hippocampal cultures were incubated in neuronal growth media containing 50 μMDHPG for 5 minutes and then washed” for “Labeling of surface or internalized pool of AMPA receptor was performed as described”, “new growth media. Surface” for “minor modifications (Shepherd, et al., Neuron, 52, 475-484 (2006)). Briefly, surface”
Quantification of surface GluR1 puncta was carried out using Image J software. Images were acquired as multi-channel TIFF files with a dynamic range of 4096 gray levels (12-bit binary; MultiTrack acquisition for confocal) using metamorph software on a Zeiss LSM 510 confocal microscope. To measure punctate structures neurons were thresholded by gray value at a level close to 50% of the dynamic range. Background noise from these images was negligible. All puncta were treated as individual objects and the characteristics of each, such as area and average fluorescence, were logged measured. The Data reflected in FIGS. 1B-C was an example of one representative experiment. The total intensity of GluR1 levels were normalized to control, untreated neurons at 60 min. Significance was determined by a paired Student's t-test.

eEF2K-mGluR5 interaction = molecular target: T1, eEF2K-mGluR5 interaction (Mus musculus, UniProt Q3UVX5); experiment: Co-immunoprecipitation of mGluR5 with eEF2K in synaptoneurosomes; conditions: WT forebrain synaptoneurosomes, DHPG 20 min
T1 construct: confirmed that native mGluR5 associated with eEF2K; from tissue; host or cells: mouse forebrain synaptoneurosomes
T1 sequence (Q3UVX5 21-1203 limits assumed): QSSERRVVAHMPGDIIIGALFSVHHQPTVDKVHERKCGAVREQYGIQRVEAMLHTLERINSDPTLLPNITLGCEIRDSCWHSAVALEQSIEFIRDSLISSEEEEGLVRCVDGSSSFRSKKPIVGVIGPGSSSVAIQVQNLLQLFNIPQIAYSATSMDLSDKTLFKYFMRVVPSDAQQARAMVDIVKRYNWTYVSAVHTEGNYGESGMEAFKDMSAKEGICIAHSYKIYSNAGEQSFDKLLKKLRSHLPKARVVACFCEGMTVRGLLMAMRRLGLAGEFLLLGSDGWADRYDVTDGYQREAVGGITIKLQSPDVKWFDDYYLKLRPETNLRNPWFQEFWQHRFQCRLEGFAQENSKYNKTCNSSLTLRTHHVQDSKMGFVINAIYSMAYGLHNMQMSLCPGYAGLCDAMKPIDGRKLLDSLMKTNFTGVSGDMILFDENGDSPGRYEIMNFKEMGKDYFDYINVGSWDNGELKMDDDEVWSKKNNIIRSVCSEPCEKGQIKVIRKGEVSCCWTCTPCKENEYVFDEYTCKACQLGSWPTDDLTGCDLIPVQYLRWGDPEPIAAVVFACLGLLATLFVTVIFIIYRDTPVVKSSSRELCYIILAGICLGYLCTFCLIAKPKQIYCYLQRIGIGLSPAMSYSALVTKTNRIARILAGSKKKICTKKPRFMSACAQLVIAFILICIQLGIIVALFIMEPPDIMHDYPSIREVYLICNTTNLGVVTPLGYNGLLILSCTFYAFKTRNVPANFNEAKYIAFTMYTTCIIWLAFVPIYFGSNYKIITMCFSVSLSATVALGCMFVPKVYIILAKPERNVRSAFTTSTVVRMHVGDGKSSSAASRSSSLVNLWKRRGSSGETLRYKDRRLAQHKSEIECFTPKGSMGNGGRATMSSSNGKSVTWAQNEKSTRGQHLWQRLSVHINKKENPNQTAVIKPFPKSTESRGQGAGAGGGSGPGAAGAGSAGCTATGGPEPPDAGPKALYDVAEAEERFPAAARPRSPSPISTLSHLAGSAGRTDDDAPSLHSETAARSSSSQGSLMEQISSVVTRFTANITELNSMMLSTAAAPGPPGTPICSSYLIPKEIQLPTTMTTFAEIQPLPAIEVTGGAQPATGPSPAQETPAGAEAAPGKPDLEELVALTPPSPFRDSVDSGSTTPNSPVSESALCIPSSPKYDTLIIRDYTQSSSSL

NC(C(=O)O)c1cc(O)cc(O)c1 (racemic) [DHPG, (R,S)-3,5-DHPG]
Arc immunoreactivity in dendrites ([1]; DHPG 50 μM 5 min, relative to untreated dendrites): 1.58±0.095 | Arc immunoreactivity in cell body ([1]; DHPG 50 μM 5 min, relative to untreated soma): 1.34±0.063 | level of Arc in soma or dendrites after DHPG ([1]; eEF2K KO hippocampal neurons): did not change the level of Arc | rapid increase of Arc protein following DHPG stimulation ([2]; Fmr1 KO neurons): absent | level of Arc protein after DHPG ([2]; WT neurons, DHPG 50 μM, 5 min): significantly increased the level of Arc; also recorded: induced | increase in Arc protein 5 min after DHPG ([2]; eEF2K KO neurons): absent | global protein synthesis compared to untreated control ([3]; pretreatment of DHPG (30 min before harvest for 5 min)): 1.080±0.036 | global protein synthesis compared to untreated control ([3]; simultaneous treatment of DHPG for 5 min): 0.926±0.017 | reduction of ratio of surface to total GluR2/3 ([4]; WT neurons): ~30% | reduction of ratio of surface to total GluR2/3 ([4]; eEF2K KO neurons): did not significantly reduce | internalized GluR1 ([5]; Arc KO neurons, after DHPG): did not exhibit changes | surface GluR1 ([5]; Arc KO neurons, after DHPG): did not exhibit any changes | internalized GluR1 ([5]; WT cultures, 15 min after 5 min DHPG): increase of internalized GluR1 | surface GluR1 ([5]; WT hippocampal cultures, 15 min and 60 min after 5 min DHPG): loss of surface GluR1 | co-IP of mGluR5 with eEF2K (eEF2K-mGluR5 interaction): decreased the co-IP of mGluR5
